Measured values reported in patent US6989443B2, “Carboranylporphyrins and uses thereof” (Brookhaven Science Associates, LLC, priority 2004, dated 2006).

Key:
[1] = test system: malignant brain tumors; settings: in vivo; cited from earlier work
[2] = test system: EMT-6 mammary carcinomas; test: Biodistribution of porphyrin IX in mice bearing EMT-6 carcinomas (tissue boron analyses); assay type: in vivo, BALB/c mice; settings: for Average boron concentration, Blood / Average boron concentration, Brain / Average boron concentration, EMT-6 Tumor / Average boron concentration, Liver: 87 mg/kg (30 mg B/kg) in 3 i.p. injections over 8 hours, n = 5
Description: (§1) BALB/c mice bearing subcutaneously implanted EMT-6 mammary carcinomas implanted on the dorsal thorax were given a total dose of 87 milligrams porphyrin compound (IX) per kilogram body weight (30 mg B/kg) in 3 intraperitoneal (i.p.) injections over a period of 8 hours. At two and four days after the last injection, mice were euthanized, and tumor, blood, brain, and liver were removed for boron analyses. The blood was first analyzed for hematologic parameters that indicate toxicity before it was analyzed for boron.

[3] = Weight changes and hematologic parameters from porphyrin (IX) in mice; settings: for % Weight change / Granulocytes / Lymphocytes / Platelets: median (and range)
Description: as §1

[4] = 2 days after last injection, 87 mg/kg (30 mg B/kg)
[5] = 4 days after last injection, 87 mg/kg (30 mg B/kg)

N[C@@H](Cc1ccc(B(O)O)cc1)C(=O)O [BPA, p-boronophenylalanine]
chemical toxicity [1]: low chemical toxicity

Copper meso-5,10,15,20-tetrakis[3-(3,5-o-dicarboranyl methoxybenzyloxy)phenyl]porphyrin [Porphyrin compound (IX)]
Average boron concentration, Blood ([2]; 2 days after last injection): 0.5 ± 0.2 μg B/g | Average boron concentration, Brain ([2]; 2 days after last injection): 0.2 ± 0.0 μg B/g | Average boron concentration, EMT-6 Tumor ([2]; 2 days after last injection): 43.5 ± 10.0 μg B/g | Average boron concentration, Liver ([2]; 2 days after last injection): 353 ± 55 μg B/g | Average boron concentration, Blood ([2]; 4 days after last injection): 0.2 ± 0.1 μg B/g | Average boron concentration, Brain ([2]; 4 days after last injection): 0.3 ± 0.2 μg B/g | Average boron concentration, EMT-6 Tumor ([2]; 4 days after last injection): 27.8 ± 7.6 μg B/g | Average boron concentration, Liver ([2]; 4 days after last injection): 250 ± 70 μg B/g | tumor to brain boron ratio ([2]; EMT-6 tumor-bearing mice, compared with tumor to blood ratio): even higher | tumor boron concentrations, adequacy for therapy ([2]; particularly at the two-day time-point): adequate for therapy | weight change compared to solvent-injected mice ([3]; 87 mg/kg (30 mg B/kg)): no differences between porphyrin- and solvent-injected mice | platelet count compared to solvent-only mice ([3]; 2-day time point): small but significant decrease | platelet count compared to solvent-only group ([3]; 4-day time point): rebounded to a level greater than those from the solvent-only group | % Weight change [3, 4]: 0.4 (−4.9–2.5) % | Granulocytes [3, 4]: 53 (42–60) % WBC | Lymphocytes [3, 4]: 44 (37–56) % WBC | Platelets [3, 4]: 193 (51–432) 10^3/mm^3 | % Weight change [3, 5]: −0.6 (−4.7–1.5) % | Granulocytes [3, 5]: 62 (57–67) % WBC | Lymphocytes [3, 5]: 35 (30–39) % WBC | Platelets [3, 5]: 917 (670–1128) 10^3/mm^3
